Experimental data reported in the supplement of paper PMC4862054.

Legend:
Hs578T [1] = assay: normalised response (% of control), CellTiter-Glo; higher = more viable cells (100 = DMSO, 0 = benzethonium chloride kill control); conditions: incubation time: 72 h
In short: (§1)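 After 72 h with compound in 384-well plates, breast cancer cell lines seeded as 20 µl suspension were read for CellTox Green fluorescence at 485/520 nm. CellTiter-Glo luminescence was then read after 10 min at room temperature. Compound was present at 5 concentrations in 10-fold steps over a 10,000-fold range set per compound, and plates were normalised to 0.1 % DMSO (100) and a positive kill control (0). Values are normalised signals, each at a single concentration.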

CAL-148 [2] = assay: as above; conditions: incubation time: 72 h
In short: as §1

CAL-85-1 [3] = assay: as above; conditions: incubation time: 72 h
In short: as §1

HCC1937 [4] = assay: as above; conditions: incubation time: 72 h
In short: as §1

HCC1143 [5] = assay: as above; conditions: incubation time: 72 h
In short: as §1

MDA-MB-453 = assay: as above; conditions: incubation time: 72 h
In short: as §1

MCF-10A [6] = assay: as above; conditions: incubation time: 72 h
In short: as §1

HDQ-P1 = assay: as above; conditions: incubation time: 72 h
In short: as §1

MDA-MB-231 [7] = assay: as above; conditions: incubation time: 72 h
In short: as §1

MFM-223 = conditions: 72 h
In short: (§2)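 Breast cancer cell lines in 20 µl suspension were seeded onto 384-well plates pre-loaded with compound dissolved in 5 µl medium, then incubated 72 h. For viability, 2.5 µl CellTiter-Blue was added for 2 h at 37 °C and fluorescence read at 560/590 nm. Each plate was normalised to vehicle and a positive kill control and checked by Z'-factor. EC50 comes from the fitted percent-inhibition dose-response curve, censored at the highest concentration; rows with zero drug sensitivity score were dropped.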

BT-474 = conditions: 72 h
Description: (§3)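 Drug sensitivity and resistance testing (DSRT) of breast cancer cell lines in 384-well plates, 5 concentrations in 10-fold dilutions over a compound-specific 10,000-fold range. After 72 h, cytotoxicity was read by CellTox Green fluorescence and viability by CellTiter-Glo luminescence (multiplexed), normalised to DMSO and benzethonium chloride controls. EC50 is the inflection point of the fitted dose-response curve (bottom asymptote free, so it can be relative for partial curves) and is censored at the highest tested concentration. Rows with DSS 0 (no meaningful response) were excluded.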

Hs578T [8] = conditions: 72 h
In short: as §2

MDA-MB-436 = conditions: 72 h
In short: as §2

BT-549 = conditions: 72 h
In short: as §2

HCC1143 [9] = conditions: 72 h
In short: as §2

HCC1599 = conditions: 72 h
In short: as §2

MDA-MB-468 [10] = conditions: 72 h
In short: as §2

HCC1937 [11] = conditions: 72 h
In short: as §2

Hs578T [12] = conditions: 72 h; remark: listed apart in the source
Description: as §3

SK-BR-3 = conditions: 72 h
In short: as §2

MDA-MB-231 [13] = conditions: 72 h
In short: as §2

CAL-120 = conditions: 72 h
In short: as §2

CAL-148 [14] = conditions: 72 h
Description: as §3

CAL-85-1 [15] = conditions: 72 h
Description: as §3

MDA-MB-468 [16] = conditions: 72 h; remark: listed apart in the source
Description: as §3

CAL-51 = conditions: 72 h
Description: as §3

CAL-148 [17] = conditions: 72 h; remark: listed apart in the source
In short: (§4)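 Breast cancer cell lines (20 µl suspension) were seeded into 384-well plates holding compound at 5 concentrations in 10-fold steps over a compound-specific 10,000-fold range, then incubated 72 h. Cell death was read first by CellTox Green fluorescence (485/520 nm), then viability by CellTiter-Glo luminescence after 10 min at room temperature. Each plate was normalised to 0.1 % DMSO and a positive kill control. EC50 was fitted from the dose-response curves and censored at the top concentration.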

HCC1143 [18] = conditions: 72 h; remark: listed apart in the source
In short: as §4

MCF-10A [19] = conditions: 72 h
In short: as §4

| Structure (SMILES) | normalised response (Hs578T [1]) | normalised response (CAL-148 [2]) | normalised response (CAL-85-1 [3]) | normalised response (HCC1937 [4]) | normalised response (HCC1143 [5]) | normalised response (MDA-MB-453) | normalised response (MCF-10A [6]) | normalised response (HDQ-P1) | normalised response (MDA-MB-231 [7]) | also measured |
| --- | --- | --- | --- | --- | --- | --- | --- | --- | --- | --- |
| Nc1ccn([C@@H]2O[C@H](CO)[C@@H](O)C2(F)F)c(=O)n1 [Gemcitabine] (1000 nM) | 74.9% | 51% | 40.5% | 85.8% | 38.9% | 74.5% | 65.8% | 82.8% | 79.5% |  |
| Cc1cn(-c2cc(NC(=O)c3ccc(C)c(Nc4nccc(-c5cccnc5)n4)c3)cc(C(F)(F)F)c2)cn1 [Nilotinib] (10000 nM) | 97.1% | 98% | 104% | 96.8% | 93% | 102% | 99.4% | 105% | 92.9% |  |
| CC(C)(C)NC(=O)[C@H]1CC[C@H]2[C@@H]3CC[C@H]4NC(=O)C=C[C@]4(C)[C@H]3CC[C@]12C [Finasteride] |  |  |  |  |  |  |  |  |  | EC50, CellTiter-Blue viability (MFM-223): 8260 nM |
| CC(C)C[C@H](NC(=O)[C@@H](COC(C)(C)C)NC(=O)[C@H](Cc1ccc(O)cc1)NC(=O)[C@H](CO)NC(=O)[C@H](Cc1c[nH]c2ccccc12)NC(=O)[C@H](Cc1cnc[nH]1)NC(=O)[C@@H]1CCC(=O)N1)C(=O)N[C@@H](CCCNC(=N)N)C(=O)N1CCC[C@H]1C(=O)NNC(N)=O [Goserelin] |  |  |  |  |  |  |  |  |  | EC50, CellTox Green (BT-474): > 10000 nM |
| C=CCn1c(=O)c2cnc(Nc3ccc(N4CCN(C)CC4)cc3)nc2n1-c1cccc(C(C)(C)O)n1 [MK1775] (10000 nM) | 22% | 9.04% | 11.4% | 28.3% | 17.5% | 44% | 19% | 17.4% | 23.7% |  |
| CC1(C)CCC(c2ccc(Cl)cc2)=C(CN2CCN(c3ccc(C(=O)NS(=O)(=O)c4ccc(N[C@H](CCN5CCOCC5)CSc5ccccc5)c(S(=O)(=O)C(F)(F)F)c4)cc3)CC2)C1 [Navitoclax] (10000 nM) | 79.3% | 72.4% | 86.2% | 56.9% | 77.8% | 60.3% | 92.5% | 66.8% | 16.1% |  |
| CC[C@H](CO)Nc1nc(NCc2ccccc2)c2ncn(C(C)C)c2n1 [Roscovitine] |  |  |  |  |  |  |  |  |  | EC50, CellTiter-Blue viability (Hs578T [8]): 7660 nM; EC50, CellTiter-Blue viability (MDA-MB-436): 2500 nM; EC50, CellTiter-Blue viability (BT-549): 684 nM; EC50, CellTiter-Blue viability (HCC1143 [9]): > 10000 nM; EC50, CellTiter-Blue viability (HCC1599): 2290 nM |
| CNC(=O)c1ccccc1Sc1ccc2c(/C=C/c3ccccn3)n[nH]c2c1 [Axitinib] (10000 nM) | 61.4% | 67% | 120% | 79.2% | 79% | 113% | 78.6% | 77.8% | 94.5% |  |
| CC(O)(CS(=O)(=O)c1ccc(F)cc1)C(=O)Nc1ccc(C#N)c(C(F)(F)F)c1 (stereo not given) [Bicalutamide] |  |  |  |  |  |  |  |  |  | EC50, CellTiter-Blue viability (MDA-MB-468 [10]): > 10000 nM |
| C/C(=C\c1csc(C)n1)[C@@H]1C[C@@H]2O[C@]2(C)CCC[C@H](C)[C@H](O)[C@@H](C)C(=O)C(C)(C)[C@@H](O)CC(=O)N1 [Ixabepilone] (1000 nM) | 99% | 107% | 26.1% | 104% | 97.6% | 106% | 95.6% | 99.1% | 73.8% |  |
| Cc1cn(-c2cc(NC(=O)c3ccc(C)c(Nc4nccc(-c5cccnc5)n4)c3)cc(C(F)(F)F)c2)cn1 [Nilotinib] |  |  |  |  |  |  |  |  |  | EC50, CellTiter-Blue viability (HCC1937 [11]): 117 nM; EC50, CellTiter-Blue viability (BT-549): 2590 nM; EC50, CellTox Green (Hs578T [12]): > 10000 nM |
| CO[C@@H]1[C@H](N(C)C(=O)c2ccccc2)C[C@H]2O[C@]1(C)n1c3ccccc3c3c4c(c5c6ccccc6n2c5c31)C(=O)NC4 [Midostaurin] (10000 nM) | 16.8% | 88.1% | 76% | 50.1% | 45.9% | 110% | 24.9% | 54.4% | 40.7% |  |
| Cc1cc(Nc2nc(N[C@@H](C)c3ncc(F)cn3)ncc2Cl)[nH]n1 [AZD1480] (1000 nM) | 82% | 87.3% | 96% | 96% | 92.7% | 72.4% | 89.5% | 93.6% | 78.2% |  |
| CCNC(=O)c1noc(-c2cc(C(C)C)c(O)cc2O)c1-c1ccc(CN2CCOCC2)cc1 [NVP-AUY922] (1000 nM) | 35.6% | 29.3% | 21% | 28.3% | 38% | 26.3% | 16.7% | 23.6% | 24.9% |  |
| Nc1ccn([C@@H]2O[C@H](CO)[C@@H](O)C2(F)F)c(=O)n1 [Gemcitabine] |  |  |  |  |  |  |  |  |  | EC50, CellTiter-Blue viability (Hs578T [8]): 9.36 nM; EC50, CellTiter-Blue viability (HCC1937 [11]): 20.5 nM; EC50, CellTiter-Blue viability (MDA-MB-436): 22.2 nM; EC50, CellTiter-Blue viability (BT-549): 19.1 nM; EC50, CellTiter-Blue viability (HCC1143 [9]): 9.03 nM; EC50, CellTiter-Blue viability (MFM-223): 673 nM; EC50, CellTiter-Blue viability (MDA-MB-468 [10]): 13.5 nM; EC50, CellTiter-Blue viability (SK-BR-3): 11.8 nM; EC50, CellTiter-Blue viability (MDA-MB-231 [13]): 4.41 nM; EC50, CellTiter-Blue viability (CAL-120): 9.03 nM; EC50, CellTiter-Blue viability (HCC1599): 233 nM; EC50, CellTox Green (CAL-148 [14]): 9.69 nM; EC50, CellTox Green (CAL-85-1 [15]): 99.7 nM; EC50, CellTox Green (MDA-MB-468 [16]): 5.64 nM; EC50, CellTox Green (CAL-51): 7.56 nM; EC50, CellTiter-Glo (CAL-148 [17]): 12.8 nM; EC50, CellTiter-Glo (HCC1143 [18]): 9.33 nM; EC50, CellTiter-Glo (MCF-10A [19]): 39.9 nM |
